Source: ChEMBL document CHEMBL3045069, “Antifeedant activity of quinones from Ventilago madaraspatana” (2001)

Columns and labels:
Type in all cases: functional
[1] = test system: Spodoptera litura; experiment: Antifeedant activity against Spodoptera litura in Ricinus communis leaves assessed as mean leaf area fed at 10 ug/cm'2 by dual choice leaf disc bioassay (reference value: 52.8 +/- 2.50 to 53.6 +/- 4.76 cm'2)
[2] = test system: Spodoptera litura; experiment: Antifeedant activity against Spodoptera litura in Ricinus communis leaves assessed as mean leaf area fed at 5 ug/cm'2 by dual choice leaf disc bioassay (reference value: 52.6 +/- 1.34 to 55.6 +/- 3.71 cm'2)
[3] = test system: Henosepilachna vigintioctopunctata; experiment: Antifeedant activity against Henosepilachna vigintioctopunctata in Solanum nigrum leaves assessed as mean leaf area fed at 5 ug/cm'2 by dual choice leaf disk bioassay (reference value: 0.74 +/- 0.02 to 0.91 +/- 0.01 cm'2)
[4] = test system: Henosepilachna vigintioctopunctata; experiment: Antifeedant activity against Henosepilachna vigintioctopunctata in Solanum nigrum leaves assessed as mean leaf area fed at 1 ug/cm'2 by dual choice leaf disk bioassay (reference value: 0.75 +/- 0.06 to 0.92 +/- 0.05 cm'2)
[5] = test system: Spodoptera litura; experiment: Antifeedant activity against Spodoptera litura in Ricinus communis leaves assessed as mean leaf area fed at 1 ug/cm'2 by dual choice leaf disc bioassay (reference value: 53 +/- 2.44 to 53.6 +/- 2.61 cm'2)
[6] = test system: Henosepilachna vigintioctopunctata; experiment: Antifeedant activity against Henosepilachna vigintioctopunctata in Solanum nigrum leaves assessed as mean leaf area fed by dual choice leaf disk bioassay; set-up: concentration or dose not given beside the values
[7] = test system: Spodoptera litura; experiment: Antifeedant activity against Spodoptera litura in Ricinus communis leaves assessed as mean leaf area fed by dual choice leaf disc bioassay; set-up: concentration or dose not given beside the values
[8] = test system: Henosepilachna vigintioctopunctata; experiment: Antifeedant activity against Henosepilachna vigintioctopunctata in Solanum nigrum leaves assessed as mean leaf area fed at 10 ug/cm'2 by dual choice leaf disk bioassay (reference value: 0.78 +/- 0.04 to 0.99 +/- 0.17 cm'2)

SMILES | Activity [1] [cm2] | Activity [2] [cm2] | Activity [3] [cm2] | Activity [4] [cm2] | Activity [5] [cm2] | Activity [6] [%] | Activity [7] [%] | Activity [8] [cm2]
COc1c2c(c(O)c3c1C(=O)C1=C(C[C@H](C)O[C@@H]1C)C3=O)OCO2 [VENTILOQUINONE A] | 7.2 | 19.8 | 0.28 | 0.46 | 25.2 | 47 | 40 | 0.07
Cc1cc(O)c2c(c1)C(=O)c1cc(O)cc(O)c1C2=O [EMODIN] | 11 | 20.5 | 0.3 | 0.48 | 33.2 | 44 | 31 | 0.13
COc1c2c(c(OC)c3c1C(=O)C1=C(C3=O)[C@@H](C)O[C@@H](C)C1)OCO2 [VENTILOQUINONE B] | 11.6 | 22.5 | 0.34 | 0.54 | 33.8 | 32 | 29 | 0.17
C/C=C(\C)C(=O)O[C@H]1C[C@@H](OC(C)=O)[C@@]2(C(=O)OC)CO[C@H]3[C@@H](O)[C@@](C)([C@]45O[C@@]4(C)[C@H]4C[C@@H]5O[C@@H]5OC=C[C@@]54O)[C@H]4[C@]1(CO[C@]4(O)C(=O)OC)[C@@H]32 [AZADIRACTIN] | 5 | 13.5 | 0.2 | 0.4 | 20.3 | 56 | 60 | 0.05
Cc1cc(O)c2c(c1)C(=O)c1cccc(O)c1C2=O [CHRYSOPHANOL] | 13.6 | 24 | 0.43 | 0.61 | 40.4 | 26 | 20 | 0.25
COc1cc(O)c2c(c1)C(=O)c1cc(C)cc(O)c1C2=O [PHYSCION] | 11.3 | 21.6 | 0.32 | 0.52 | 33.4 | 34 | 30 | 0.15
COc1cc(OC)c2c(c1OC)C(=O)C1=C(C2=O)[C@@H](C)O[C@@H](C)C1 [VENTILOQUINONE E] | 13.3 | 23.3 | 0.39 | 0.58 | 35.1 | 29 | 25 | 0.21
COc1c2c(c(O)c3c1C(=O)c1coc(C)c1C3=O)OCO2 [VENTILONE B] | 13 | 23 | 0.37 | 0.56 | 34.9 | 31 | 27 | 0.19
